Read-outs that look alike come from different tables or passages of the source.
Assays:
LD50 in mice = conditions: mouse, in vivo
plasmodium berghei = experiment: suppression of parasitemia in mice infected with plasmodium berghei; format: in vivo; conditions: for ED50: Plasmodium berghei, sc
Procedure: Five representative amidinoureas were tested in mice infected with plasmodium berghei. The five compounds tested are the following:
Groups of 10 mice each were used in seven doses totaling 70 mice per compound. The protozoal infection was induced by intraperitoneal injection of 5,000,000 parasitized blood cells from a donor. The compound was administered subcutaneously in doses ranging from 0.15 to 10 mg. per kg., suspended on 0.5% methacel solution (doses expressed as base). The compound was repeatedly injected on the day of inoculation (day 1), day 2 and day 3. Blood smears were performed on days 4, 5, 6 and 10.
Untreated control but infected mice developed fulminating parasitemia of as high as 35% on day 10 and deaths occurred from day 12 to 14.

[1] = mice, s.c., 1.0 mg/kg on days 1-3, 4th day
[2] = mice, s.c., 1.0 mg/kg on days 1-3, 5th day
[3] = mice, s.c., 1.0 mg/kg on days 1-3, 6th day
[4] = mice, s.c., 1.0 mg/kg on days 1-3, 10th day
[5] = mice, s.c., 2.0 mg/kg on days 1-3, 4th day
[6] = mice, s.c., 2.0 mg/kg on days 1-3, 5th day
[7] = mice, s.c., 2.0 mg/kg on days 1-3, 6th day
[8] = mice, s.c., 2.0 mg/kg on days 1-3, 10th day
[9] = mice, s.c., 10.0 mg/kg on days 1-3, 4th day
[10] = mice, s.c., 10.0 mg/kg on days 1-3, 5th day
[11] = mice, s.c., 10.0 mg/kg on days 1-3, 6th day
[12] = mice, s.c., 10.0 mg/kg on days 1-3, 10th day
[13] = mice, s.c., .15 mg/kg on days 1-3, 4th day
[14] = mice, s.c., .15 mg/kg on days 1-3, 5th day
[15] = mice, s.c., .15 mg/kg on days 1-3, 6th day
[16] = mice, s.c., .15 mg/kg on days 1-3, 10th day
[17] = mice, s.c., .20 mg/kg on days 1-3, 4th day
[18] = mice, s.c., .20 mg/kg on days 1-3, 5th day
[19] = mice, s.c., .20 mg/kg on days 1-3, 6th day
[20] = mice, s.c., .20 mg/kg on days 1-3, 10th day
[21] = mice, s.c., .30 mg/kg on days 1-3, 4th day
[22] = mice, s.c., .30 mg/kg on days 1-3, 5th day
[23] = mice, s.c., .30 mg/kg on days 1-3, 6th day
[24] = mice, s.c., .30 mg/kg on days 1-3, 10th day
[25] = mice, s.c., .50 mg/kg on days 1-3, 4th day
[26] = mice, s.c., .50 mg/kg on days 1-3, 5th day
[27] = mice, s.c., .50 mg/kg on days 1-3, 6th day
[28] = mice, s.c., .50 mg/kg on days 1-3, 10th day

## CCCNC(=O)NC(=N)Nc1c(Cl)cccc1Cl [Compound A, 1-(2,6-dichlorophenylamidino)-3-n-propylurea]
LD50 in mice
  LD50: > 600 mg/kg
Plasmodium berghei; 96 h, mice, s.c., levels of parasitemia, 4th day, read-out: SED50 (Suppressant Effective Dose50)
  ED50: 0.71 mg/kg
Plasmodium berghei; 120 h, mice, s.c., levels of parasitemia, 5th day, read-out: SED50 (Suppressant Effective Dose50)
  ED50: 1.2 mg/kg
Plasmodium berghei; 144 h, mice, s.c., levels of parasitemia, 6th day, read-out: SED50 (Suppressant Effective Dose50)
  ED50: 1.05 mg/kg
Plasmodium berghei; 240 h, mice, s.c., levels of parasitemia, 10th day, read-out: SED50 (Suppressant Effective Dose50)
  ED50: 1.58 mg/kg
Plasmodium berghei; mice, day 4 to day 10, read-out: HIGHEST SED50
  ED50: 1.58 mg/kg
Plasmodium berghei; mice, day 4 to day 10, read-out: LOWEST SED50
  ED50: 0.71 mg/kg
Plasmodium berghei; factor of change, day 4 to day 10, duration of action
  FACTOR (HIGHEST SED50 ÷ LOWEST SED50): 2.23
Plasmodium berghei; mice, among the five compounds
  duration of action: longest duration of action
Plasmodium berghei; mice, day 10, among the five compounds
  SED50 rank: lowest SED50 on day 10
Plasmodium berghei; [1]
  Mean % Parasitemia: 2.50%
  Mean % Suppression: 52.3%
Plasmodium berghei; [2]
  Mean % Parasitemia: 4.20%
  Mean % Suppression: 42.5%
Plasmodium berghei; [3]
  Mean % Parasitemia: 4.60%
  Mean % Suppression: 50.5%
Plasmodium berghei; [4]
  Mean % Parasitemia: 20.4%
  Mean % Suppression: 42.5%
Plasmodium berghei; mice, s.c., 1.0 mg/kg on days 1-3, 12th day
  % died: 0%
Plasmodium berghei; mice, s.c., 1.0 mg/kg on days 1-3, 13th day
  % died: 20%
Plasmodium berghei; mice, s.c., 1.0 mg/kg on days 1-3, 14th day
  % died: 40%
Plasmodium berghei; [5]
  Mean % Parasitemia: 2.25%
  Mean % Suppression: 57.1%
Plasmodium berghei; [6]
  Mean % Parasitemia: 3.00%
  Mean % Suppression: 59.0%
Plasmodium berghei; [7]
  Mean % Parasitemia: 3.80%
  Mean % Suppression: 59.1%
Plasmodium berghei; [8]
  Mean % Parasitemia: 16.5%
  Mean % Suppression: 53.5%
Plasmodium berghei; mice, s.c., 2.0 mg/kg on days 1-3, 12th day
  % died: 0%
Plasmodium berghei; mice, s.c., 2.0 mg/kg on days 1-3, 13th day
  % died: 0%
Plasmodium berghei; mice, s.c., 2.0 mg/kg on days 1-3, 14th day
  % died: 20%
Plasmodium berghei; [9]
  Mean % Parasitemia: 0%
  Mean % Suppression: 100.0%
Plasmodium berghei; [10]
  Mean % Parasitemia: 0%
  Mean % Suppression: 100.0%
Plasmodium berghei; [11]
  Mean % Parasitemia: 0%
  Mean % Suppression: 100.0%
Plasmodium berghei; [12]
  Mean % Parasitemia: 0%
  Mean % Suppression: 100.0%
Plasmodium berghei; mice, s.c., 10.0 mg/kg on days 1-3, 12th day
  % died: 0%
Plasmodium berghei; mice, s.c., 10.0 mg/kg on days 1-3, 13th day
  % died: 0%
Plasmodium berghei; mice, s.c., 10.0 mg/kg on days 1-3, 14th day
  % died: 0%
Plasmodium berghei; [13]
  Mean % Parasitemia: 5.00%
  Mean % Suppression: 4.8%
Plasmodium berghei; [14]
  Mean % Parasitemia: 6.90%
  Mean % Suppression: 5.5%
Plasmodium berghei; [15]
  Mean % Parasitemia: 8.10%
  Mean % Suppression: 12.9%
Plasmodium berghei; [16]
  Mean % Parasitemia: 33.02%
  Mean % Suppression: 7.0%
Plasmodium berghei; mice, s.c., .15 mg/kg on days 1-3, 12th day
  % died: 40%
Plasmodium berghei; mice, s.c., .15 mg/kg on days 1-3, 13th day
  % died: 60%
Plasmodium berghei; mice, s.c., .15 mg/kg on days 1-3, 14th day
  % died: 80%
Plasmodium berghei; [17]
  Mean % Parasitemia: 4.00%
  Mean % Suppression: 23.8%
Plasmodium berghei; [18]
  Mean % Parasitemia: 6.80%
  Mean % Suppression: 6.8%
Plasmodium berghei; [19]
  Mean % Parasitemia: 7.50%
  Mean % Suppression: 19.4%
Plasmodium berghei; [20]
  Mean % Parasitemia: 30.1%
  Mean % Suppression: 15.2%
Plasmodium berghei; mice, s.c., .20 mg/kg on days 1-3, 12th day
  % died: 0%
Plasmodium berghei; mice, s.c., .20 mg/kg on days 1-3, 13th day
  % died: 20%
Plasmodium berghei; mice, s.c., .20 mg/kg on days 1-3, 14th day
  % died: 20%
Plasmodium berghei; [21]
  Mean % Parasitemia: 3.25%
  Mean % Suppression: 38.1%
Plasmodium berghei; [22]
  Mean % Parasitemia: 6.30%
  Mean % Suppression: 13.7%
Plasmodium berghei; [23]
  Mean % Parasitemia: 7.20%
  Mean % Suppression: 22.6%
Plasmodium berghei; [24]
  Mean % Parasitemia: 28.5%
  Mean % Suppression: 19.7%
Plasmodium berghei; mice, s.c., .30 mg/kg on days 1-3, 12th day
  % died: 0%
Plasmodium berghei; mice, s.c., .30 mg/kg on days 1-3, 13th day
  % died: 20%
Plasmodium berghei; mice, s.c., .30 mg/kg on days 1-3, 14th day
  % died: 20%
Plasmodium berghei; [25]
  Mean % Parasitemia: 2.75%
  Mean % Suppression: 47.6%
Plasmodium berghei; [26]
  Mean % Parasitemia: 5.00%
  Mean % Suppression: 31.5%
Plasmodium berghei; [27]
  Mean % Parasitemia: 5.40%
  Mean % Suppression: 41.9%
Plasmodium berghei; [28]
  Mean % Parasitemia: 24.8%
  Mean % Suppression: 30.1%
Plasmodium berghei; mice, s.c., .50 mg/kg on days 1-3, 12th day
  % died: 0%
Plasmodium berghei; mice, s.c., .50 mg/kg on days 1-3, 13th day
  % died: 0%
Plasmodium berghei; mice, s.c., .50 mg/kg on days 1-3, 14th day
  % died: 40%

Reference: patent US4340609A, “Amidinourea derivative veterinary compositions for suppression of parasitemia” (William H. Rorer, Inc., priority 1980, dated 1982)
